Test results published in patent publication US6911469B2, “Sulfonamide compounds and pharmaceutical use thereof” (Fujisawa Pharmaceutical Co., Ltd., priority 1997, dated 2005).

Test system: female db/db mice
Assay: blood sugar level depressing activity in dd/db mice
Type: in vivo
Conditions: dose 10 mg/kg, drug mixed with powder diet, given for 14 days, difference between db/db control group and +/+ mice taken as 100%
Method: (blood sugar level depressing activity in dd/db mice)
Female C57BL/KsJ-dbm db+/db+, C57BL/KsJ-dbm +m/+m (Jackson Laboratory) mice (5 weeks old) were purchased and subjected to the test after 2-3 weeks of acclimating period.
The test drug was mixed with a powder diet (CE-2, Clea Japan, Inc.) in a mortar. In the case of administration in 100 mg/kg, the mixing proportion of the test drug to the diet was 0.1%, in the case of 30 mg/kg, the proportion was 0.03% and in the case of 10 mg/kg, the proportion was 0.01%. The diet was changed twice a week. The amount of the diet given and the amount left were recorded and the diet intake was calculated by determining the difference.
The female db/db mice were grouped according to body weight, blood sugar level and triglceride concentration in blood. […] The blood sugar value, triglyceride concentration in plasma and insulin concentration in plasma were measured at day 0 and day 14, and blood sugar value and triglyceride concentration in blood were measured at day 7. Body weight was measured at day 0, day 7 and day 14. […]
Blood sugar value was measured using 10-15 μl of plasma and in accord with glucose oxidase method glucose CII-test Waco, Waco Pure Chemicals Co., Ltd.). […] The insulin concentration in plasma was measured using 20 μl of plasma (preservable at −20° C.) and in accord with an antibody method (Phadesef Insulin RIA kit, Kabi Pharmacia). […]

`CCCCCS(=O)(=O)NC(=O)c1ccc2oc(C)c(Cc3ccc(Cl)cc3Cl)c2c1` [Compound A, 3-(2,4-Dichlorobenzyl)-2-methyl-5-(1-n-pentanesulfonylcarbamoyl)-benzo[b]furan] was tested, and the “Blood sugar decrease (%)” value was 71%.
